# Assay results from PMC2903464, “NPR-B natriuretic peptide receptors in human corneal epithelium: mRNA, immunohistochemistochemical, protein, and biochemical pharmacology studies” (Molecular Vision, 2010).
# Molecular target: T1, NPR-B (Homo sapiens, UniProt P20594)
# T1 construct: gene NPR2; endogenous membrane guanylyl cyclase receptor in intact CEPI-17-CL4 cells; NPR-A also expressed; homodimer
# T1 sequence (P20594 23-1047): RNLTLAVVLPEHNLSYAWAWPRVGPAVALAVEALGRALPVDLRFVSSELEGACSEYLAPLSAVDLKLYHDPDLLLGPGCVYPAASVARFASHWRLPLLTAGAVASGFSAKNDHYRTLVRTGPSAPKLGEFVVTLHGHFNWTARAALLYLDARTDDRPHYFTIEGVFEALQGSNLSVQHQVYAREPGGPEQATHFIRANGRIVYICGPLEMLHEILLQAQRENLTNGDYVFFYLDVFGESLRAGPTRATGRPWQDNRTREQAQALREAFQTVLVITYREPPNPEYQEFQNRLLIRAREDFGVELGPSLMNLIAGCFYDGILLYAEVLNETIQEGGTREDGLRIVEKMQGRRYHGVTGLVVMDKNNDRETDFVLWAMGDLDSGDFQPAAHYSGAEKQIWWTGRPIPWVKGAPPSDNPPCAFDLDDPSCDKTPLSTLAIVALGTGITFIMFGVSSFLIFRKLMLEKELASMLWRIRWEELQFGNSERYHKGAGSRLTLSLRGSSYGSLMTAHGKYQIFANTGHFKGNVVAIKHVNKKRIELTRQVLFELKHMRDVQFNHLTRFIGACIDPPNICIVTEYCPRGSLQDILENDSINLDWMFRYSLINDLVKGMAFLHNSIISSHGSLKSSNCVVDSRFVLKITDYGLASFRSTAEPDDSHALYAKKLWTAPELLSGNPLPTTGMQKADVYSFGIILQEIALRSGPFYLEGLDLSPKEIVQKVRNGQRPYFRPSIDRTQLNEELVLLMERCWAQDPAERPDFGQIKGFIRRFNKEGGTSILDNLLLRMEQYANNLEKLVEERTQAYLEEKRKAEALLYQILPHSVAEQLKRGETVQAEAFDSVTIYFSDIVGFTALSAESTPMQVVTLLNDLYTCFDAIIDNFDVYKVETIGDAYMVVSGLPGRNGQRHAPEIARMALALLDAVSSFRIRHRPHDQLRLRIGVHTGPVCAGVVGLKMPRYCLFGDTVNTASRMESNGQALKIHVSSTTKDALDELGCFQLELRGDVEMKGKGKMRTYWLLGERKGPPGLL
# Test: inhibition of CNP fragment-induced cGMP accumulation in CEPI-17-CL4 cells, enzyme immunoassay
# Type: cell-based
# Conditions: 30 nM CNP fragment as agonist, 1 mM IBMX, 23 °C, 20 min pre-incubation; partial inhibition; native cells expressing NPR-A and NPR-B; compound described as NPR-A antagonist
structure (smiles),measurement,value
O=C1Nc2ccccc2C1=O [isatin],Ki,5.3 ± 1.7 µM
